Experimental data as given in paper PMC7219108, “Pisum sativum Defensin 1 Eradicates Mouse Metastatic Lung Nodules from B16F10 Melanoma Cells” (International Journal of Molecular Sciences, 2020).

How the values were obtained:
[1] = test system: B16F10 melanoma cells in C57BL/6 mice; assay: Experimental B16F10 melanoma lung metastasis, nodule count; format: in vivo; conditions: for Lung nodules: day 21, mean ± SEM
Excerpt: Figure 6 Protective effects of Psd1 on a model of experimental lung metastasis in vivo. B16F10 mouse melanoma tumors were established by intravenous injection of 2.5 × 10^5 B16F10 cells into C57BL/6 mice. (A) After 21 days, mice from each experimental group were sacrificed, and the number of visible lung metastatic nodules was quantified. Treatment of the animals inoculated with melanoma cells plus Psd1 caused a dose-dependent reduction in the number of lung metastases. Black lines represent the mean ± SEM of two independent experiments analyzed by one-way ANOVA and Bonferroni’s multiple comparison test. **** p < 0.0001 B16F10 vs. phosphate buffer solution (PBS); **** p < 0.0001 B16F10 vs. Psd1 1 mg/kg; **** p < 0.0001 B16F10 vs. just Psd1 1 mg/kg (without B16F10 cells); *** p < 0.001 B16F10 vs. Psd1 3 mg/kg; * p < 0.05 B16F10 vs. Psd1 0.5 mg/kg. (B) Representative images of lung metastatic nodules from animals that received just PBS or B16F10 cells alone or together with 0.1 mg/kg or 1 mg/kg Psd1. Bar = 2 mm. (C) Animal weights were acquired every two days. Weight variation was calculated as (weight on that day (weight of the first day × 100 − 100)). Only the days with higher weight differences between animals injected with only B16F10 cells and those that received cells plus Psd1 or PBS alone are represented. All of the values represent the mean ± SEM of two independent experiments analyzed by two-way ANOVA. *** p < 0.001 B16F10 vs. PBS at […]; *** p < 0.001 B16F10 vs. Psd1 0.1 mg/kg at 9 weeks; ** p < 0.01 B16F10 vs. Psd1 0.1 mg/kg at 13 weeks; *** p < 0.001 B16F10 vs. Psd1 1 mg/kg at 9 and 13 weeks; ** p < 0.01 B16F10 vs. Psd1 1 mg/kg at 17 weeks; * p < 0.05 B16F10 vs. Psd1 1 mg/kg at 7 weeks; *** p < 0.001 B16F10 vs. Psd1 3 mg/kg at 7 and 9 weeks.
Eight-week-old C57BL/6 female mice (CEMIB, Campinas–Brasil) weighing approximately 20 g were individually marked and separated according to their experimental groups. These animals were kept in cages 20 cm × 35 cm × 15 cm (width × length × height) with free access to water and food under day and night cycles that lasted twelve hours with a controlled temperature (20–25 °C) in our own facilities. This study was approved by the Ethics Committee on the Use of Animals of Health Science Centre of the Federal University of Rio de Janeiro, Brazil (CEUA/CCS/UFRJ, CONCEA registered number 01200.001568/2013.87, approved protocol IBCCF 163 at 28 August 2012). All animals received humane care in compliance with the “Principles of Laboratory Animal Care” formulated by the National Society for Medical Research and the “Guide for the Care and Use of Laboratory Animals” prepared by the National Academy of Sciences, USA, and the National Council for Controlling Animal Experimentation, Ministry of Science, Technology and Innovation (CONCEA/MCTI), Brazil.
Mice were injected via the lateral tail vein with 100 µL of PBS only (137 mM NaCl, 2.7 mM KCl, 10 mM Na2HPO4, 2 mM KH2PO4, pH 7.4) (n = 17) or 100 µL of B16F10 cells (2.5 × 10^5 cells/animal suspended in DMEM) (n = 15). Other groups of animals were intravenously co-injected with a freshly prepared, in order to avoid B16F10 cells death, mix of B16F10 cells plus 0.1 mg/kg (n = 8), 0.5 mg/kg (n = 8), 1 mg/kg (n = 17), or 3 mg/kg Psd1 (n = 7).
Another group of animals received 1 mg/kg of Psd1 only (n = 9) to evaluate Psd1 toxicity. Twenty-one days later, the animals were anaesthetized and sacrificed, and the black lung melanoma nodules were counted and measured under a dissecting microscope (Zeiss AxioPhot fluorescence microscope (Carl-Zeiss, Oberkochen, Germany)).

[2] = test system: Beas-2B (bronchial human respiratory epithelial) cells; assay: MTT cell viability, healthy Beas-2B cells; format: cell-based; conditions: 3.125-50 µM, 24, 48 and 72 h
[3] = test system: HSP-2 (human hepatocyte) cells; assay: Cell viability, healthy HSP-2 cells; format: cell-based; conditions: 6 and 30 µM, 3 h

Substance: Psd1: 46-amino acid residue plant defensin isolated from pea seeds, expressed in Pichia pastoris (PDB 1JKZ) (KTCEHLADTYRGVCFTNASCDDHCKNKAHLISGTCHNWKCFCTQNC)
- Number of lung nodules, result in words ([1]; 0.1 mg/kg i.v., day 21): not effective in reducing the number of nodules
- Size of lung nodules, result in words ([1]; 0.1 mg/kg i.v., day 21, data not shown): effective in reducing their size
- Lung nodules ([1]; 0.5 mg/kg i.v. co-injected with B16F10 cells, B16F10 only average 43 nodules, p < 0.05): 10.2 ± 2.6 nodules
- Decrease of number of pulmonary nodules ([1]; 0.5 mg/kg i.v., day 21): 75%
- Lung nodules in animals without B16F10 cells ([1]; 1.0 mg/kg Psd1 alone, i.v., day 21): did not present lung nodules
- Lung nodules ([1]; 1.0 mg/kg i.v. co-injected with B16F10 cells, p < 0.0001): 4.82 ± 1.88 nodules
- Decrease of number of pulmonary nodules ([1]; 1.0 mg/kg i.v., day 21): 88%
- Lung nodules ([1]; 3.0 mg/kg i.v. co-injected with B16F10 cells, p < 0.001): 0.14 ± 0.14 nodules
- Tumor development, result in words ([1]; 3.0 mg/kg i.v., day 21): completely abolished tumor development
- Lung metastasis nodules, result in words ([1]; i.v., above 0.5 mg/kg): completely inhibited the formation of B16F10 lung metastasis nodules
- Lowest dose with significant reduction of lung metastasis colonization ([1]; i.v., day 21, dose-dependent): 0.5 mg/kg
- Beas-2B cell viability (MTT) [2]: no alteration in cell viability was observed even after 72 h of exposure
- HSP-2 cell viability [3]: no alteration in cell viability
